Results on two molecules are retold here after paper PMC3441706 (PLoS ONE, 2012).

The structures appear in SMILES notation.

Format in all cases: cell-based, human
Test [1] deals with HCT116 p53+/+ or p53−/− cells. Description: Determination of p53 status dependency. Conditions: HCT116 p53+/+ vs p53−/−, 72 hours, viable cell numbers. As to the method:
(§1) The isogenic colon carcinoma cells lines HCT116 p53+/+ or p53−/− and RKO p53+/+ or p53−/− were cultured in 12-well plates. After a recovery period of 24 hours, NVX-412 or Nutlin-3 was added in fresh growth medium at the indicated concentrations. […] After 24 or 72 hours cell numbers were determined with a Beckman Coulter ViCell XR.

The subject of test [2] is RKO p53+/+ or p53−/− cells. Description: Determination of p53 status dependency. The settings on record: RKO p53+/+ vs p53−/−, 72 hours, viable cell numbers. As to the method:
as §1

The subject of test [3] is p-p53 (Ser15). Description: Western Blot for p-p53 (Ser15) in HCT116 cells. The settings on record: HCT116, 24 and 48 hours, 1 µM (control). As to the method:
Treated cells were directly lysed in NP40 cell lysis buffer (Invitrogen, Grand Island, NY, USA) containing protease and phosphatase inhibitors. Protein concentrations were measured colorimetrically (DC Protein Assay, Bio-Rad Laboratories, Hercules, CA, USA). Proteins were separated by SDS - polyacrylamide gel electrophoresis and blotted onto nitrocellulose membranes (Whatman™, Vienna, AUT). Equal loading was checked by Ponceau S (SERVA, Heidelberg, GER) staining. Bound antigen was visualized with the enhanced chemiluminescence detection system (Roche Diagnostics, Indianapolis, IN, USA). These procedures were performed according to the manufacturer’s protocols. Antibodies specific for the following proteins of interest were used: pChk1 (Ser296), p-p53 (Ser15), β-Tubulin and GAPDH were obtained from Cell Signaling Technology (Danvers, MA, USA) at 1∶1000 dilution. Secondary antibodies were peroxidase-tagged goat anti-rabbit or anti-mouse IgGs (Cell Signaling Technology) (1∶2000).
(A western blot detects proteins with antibodies after separation by electrophoresis.)

For test [4], the system named is p-p53 (Ser15). The test can be described thus: Immunofluorescence staining of p-p53 (Ser15) in HCT116 cells. The settings on record: HCT116, 24 hours, 1 µM (positive control). As to the method:
(§2) HCT116 and HeLa cells were seeded on glass cover slips in 6-well plates. 24 hours after plating, HCT116 cells were incubated with 0.15, 0.5 and 1 µM NVX-412 and 1 µM CPT for 24 hours for staining of p-p53. For investigating γH2AX, HeLa cells were incubated with 0.21, 0.5 and 1 µM NVX-412 and 1 µM CPT for 3 or 24 hours. Additionally, cells were allowed to recover for 24 hours in normal growth medium after 24 hours of incubation with NVX-412 or CPT (wash-out experiment). After the respective treatments, cells were washed and fixed with 4% methanol-free formaldehyde (Polysciences Inc. Warrington, PA, USA) for 15 minutes at room temperature and then permeabilized with 0.2% Triton X-100/PBS for 2 minutes at room temperature. After blocking with goat serum (5%) in 1% BSA/0.3% Triton X-100/PBS, the respective primary antibody was added and cells were incubated at 4°C overnight. Antibodies used were: mouse p-p53 (Ser15) (Cell Signaling Technology, Danvers, MA, USA) at 1∶100 dilution and mouse p-H2AX (Ser139) (Millipore, Billerica, MA, USA) at 1∶1000 dilution in 1% BSA/PBS, respectively. Cells were then washed 3 times for 10 minutes with 0.25% BSA/0.1% Triton X-100/PBS and incubated with the Alexa Fluor 488 conjugated secondary anti-mouse antibody (1∶1000 in 0.25% BSA/0.1% Triton X-100/PBS) for 1 hour at room temperature in the dark. Cells were washed 3 times for 10 minutes with 0.05% Tween-20/PBS containing Hoechst 33342 (Sigma Aldrich, Vienna, AUT) and mounted with mounting medium (Fluoprep, bioMérieux, Marcy l'Etoile, FRA). Fluorescence was immediately recorded on a Zeiss LSM700 laser scanning microscope.

In test [5] the test system is HeLa cells. The test can be described thus: DNA replication rate (BrdU incorporation ELISA). Conditions: 24 hours treatment then 24 hours in normal growth medium. As to the method:
(§3) HeLa and HCT116 cells were plated in black 96-well plates. After cells were allowed to recover for 24 hours NVX-412 or CPT was added in fresh growth medium. After 24 hours of incubation a chemiluminescent BrdU Incorporation ELISA (Roche Applied Science, Penzberg, Germany) was performed with half of the plates according to the manufacturer’s protocol. Cells in the remaining plates were allowed to recover for 24 hours in normal growth medium before DNA replication was measured (wash-out experiment). To check whether a possible decline in DNA replication rate is not simply due to lower cell numbers because of cell death induction, the proportion of viable cells was determined in parallel by a MTT-based cytotoxicity assay according to the manufacturer’s protocol (EZ4U, Biomedica, Vienna, Austria). Colorimetric (at 492 and 620 nm) and chemiluminescent measurements were performed using a FLUOstar OPTIMA (BMG Labtech, Ortenberg, Germany).
(Dividing cells build labelled thymidine or BrdU into new DNA.)

For test [6], the system named is HCT116 cells. Description: DNA replication rate (BrdU incorporation ELISA). The settings on record: HCT116, 24 hours treatment then 24 hours in normal growth medium. As to the method: as §3
Test [7] has as its system HeLa cells. The test can be described thus: Flow cytometric cell cycle analysis. Conditions: 24 hours. As to the method: (§4) HT-29, HeLa and HCT116 cells were plated in 6-well plates. […] CPT was used at 50 nM and 1 µM. To analyze the cell cycle distribution, cells were collected after 24 hours of incubation and washed with PBS. Cells were fixed in 70% ethanol for at least 2 hours. For analysis, cells were transferred into PBS, incubated with RNAse A (0.04 µg/ml final concentration) for 30 minutes at 37°C, treated with […] propidium iodide for 30 min at 4°C and then analyzed by flow cytometry using BD FACScan (Becton, Dickinson and Company, Franklin Lakes, NJ, USA). The resulting DNA histograms were quantified using ModFit LT (Verity Software House, Topsham, ME, USA).

The test system of test [8] is HCT116 cells. Description: Flow cytometric cell cycle analysis. The settings on record: HCT116, 24 hours. As to the method:
as §4
Background: In flow cytometry, cells or beads pass a laser one at a time.

Test [9] has as its system HT-29 cells. Description: Flow cytometric cell cycle analysis. Conditions: HT-29, 24 hours. As to the method: as §4
Test [10] deals with γH2AX (Ser139). Description: Immunofluorescence staining and quantification of γH2AX in HeLa cells. As to the method:
as §2
The common procedure for assessing γH2AX induction is to count γH2AX foci. Since with NVX-412 and the positive control CPT γH2AX activation was that strong, no distinguishable and countable foci were seen. Therefore, the average γH2AX fluorescence intensity per nucleus was determined. To this end, γH2AX intensities within a certain field were measured using Quantity One –4.6.9 (Basic freeware version, Bio-Rad Laboratories, Hercules, CA, USA) and were divided by the number of nuclei in this field.

On to `COc1ccc(C2=N[C@@H](c3ccc(Cl)cc3)[C@@H](c3ccc(Cl)cc3)N2C(=O)N2CCNC(=O)C2)c(OC(C)C)c1` [Nutlin-3, reference compound], for which the “p53 status dependency of sensitivity” value in test [1] and in test [2] was “p53+/+ cells being much more sensitive than p53−/− cells” in each case.
On to `CC[C@@]1(O)C(=O)OCc2c1cc1n(c2=O)Cc2cc3ccccc3nc2-1` [CPT, (S)-(+)-Camptothecin, reference compound], for which the “Phosphorylated p53 (Western Blot)” value in test [3] is recorded as “strong induction”. Moreover, the “p-p53 (Ser15) immunofluorescence staining” value in [4] was “positive for nuclear staining of p-p53 (Ser15)”. Also, the “DNA replication rate after recovery (wash-out)” value in test [5] and in test [6] was “a recovery was only observed at the lowest concentration tested” each time. The Cell cycle distribution result in test [7] (50 nM) was “G2/M arrest”; in [7] (1 µM), “S-phase arrest”; in test [8] (50 nM), “G2/M-phase arrest”; in test [8] (1 µM), “most of the cells were already dead”; in test [9] (50 nM), “G2/M arrest”; in test [9] (1 µM), “S-phase arrest”. Also, in test [10] (3 hours), the γH2AX induction entry is listed as “Only a slight induction of γH2AX”. Further, the “γH2AX levels after recovery (wash-out)” value in [10] (24 hours treatment then 24 hours without drug) is listed as “not reversible”.
